Experimental data taken from patent US20250340554A1, “5-Amino-1H-Pyrrolo[3,2-b]Pyridine-2-Carboxamide Derivatives as MTA-Cooperative Inhibitors of PRMT5” (BeOne Medicines I GmbH, priority 2023, published 2025).

Columns and labels:
HCT116-mock-RNA-KO = assay: Compounds cell killing in HCT116 isogenic pair (Cell Titer-Glo viability), mock-RNA-KO cells (MTAP wildtype); format: cell-based; conditions: Homo sapiens, HCT-116, 144 h, 6 days, 0-10 μM compound
Description: (§1) HCT116 cell line was obtained from ATCC (CCL-247). It has a mutation in codon 13 of the ras proto-oncogene and can be used as a positive control for PCR assays of mutation in this codon. HCT116-MTAP-KO was knocked-out-MTAP-gene based HCT116, and one single clone was passed for this assay. HCT116-mock-RNA-KO was knocked-out-mock-gene based HCT116 with MTAP wildtype genotype. The base medium for HCT116 isogenic pair is RPMI 1640, HEPES (Gibco, 22400105). To make the complete growth medium, add the following components to the base medium: fetal bovine serum to a final concentration of 10% (Gibco, 10099-141C). The cell line was grown in a humidified 5% CO2 atmosphere at 37° C. and regularly tested for the presence of mycoplasma with MycoAlert™ PLUS Mycoplasma Detection Kit (Lonza, LT07-710).
(§2) • Seed HCT116-mock-RNA-KO (400/well) or HCT116-MTAP-KO (400/well) cells into a 96-well plate (Greiner: 655090), 100 μL/well. • Incubate at 37° C., 5% CO2, overnight. • Add 50 μL fresh growth-medium containing serial dilution of compounds for a final compound concentration of 0-10 μM to each well. • Incubate at 37° C., 5% CO2, 6 days. • The cell viability detected by Cell Titer-Glo (Promega, G7573). Add 70 μL of CellTiter-Glo® reagent in each well. • Incubate at room temperature for 10 minutes to stabilize luminescent signal. • Analyze with Microplate Reader (TECAN, SPARK) and fit IC50 using Prism® 9.

HCT116-MTAP-KO = assay: Compounds cell killing in HCT116 isogenic pair (Cell Titer-Glo viability), MTAP-KO cells; format: cell-based; conditions: Homo sapiens, HCT-116, 144 h, 6 days, 0-10 μM compound, * = more than 50% viability inhibition at tested concentration without a full curve
Description: as §1, §2

| Compound | IC50 (HCT116-mock-RNA-KO) [nM] | IC50 (HCT116-MTAP-KO) [nM] |
| --- | --- | --- |
| Cc1cc2[nH]c(C(=O)N(Cc3ccc(-c4c(Cl)cccc4Cl)cn3)C3CCCc4cccnc43)cc2nc1N (centres unmarked) [Example A10, 5-amino-N-((5-(2,6-dichlorophenyl)pyridin-2-yl)methyl)-6-methyl-N-(5,6,7,8-tetrahydroquinolin-8-yl)-1H-pyrrolo[3,2-b]pyridine-2-carboxamide] | 3480 | 217 |
| Cc1cc2[nH]c(C(=O)N(Cc3ccc(-c4c(C)cnn4C)cc3F)C3CCCc4cccnc43)cc2nc1N (centres unmarked) [Example A18, 5-amino-N-(4-(1,4-dimethyl-1H-pyrazol-5-yl)-2-fluorobenzyl)-6-methyl-N-(5,6,7,8-tetrahydroquinolin-8-yl)-1H-pyrrolo[3,2-b]pyridine-2-carboxamide] | 2580 | 21 |
| Cc1cc2[nH]c(C(=O)N(Cc3ccc(-c4c(F)cccc4F)cn3)[C@@H]3CCCc4c(C5CC5)ccnc43)cc2nc1N (stereo in doubt) [Example A6, 5-amino-N-(4-cyclopropyl-5,6,7,8-tetrahydroquinolin-8-yl)-N-((5-(2,6-difluorophenyl)pyridin-2-yl)methyl)-6-methyl-1H-pyrrolo[3,2-b]pyridine-2-carboxamide] | 1490 | < 4.6 |
| Nc1nc2cc(C(=O)N(Cc3ccc(-c4c(F)cccc4F)cn3)[C@@H]3CCCc4cccnc43)[nH]c2cc1Br [Example A12, (R)-5-amino-6-bromo-N-((5-(2,6-difluorophenyl)pyridin-2-yl)methyl)-N-(5,6,7,8-tetrahydroquinolin-8-yl)-1H-pyrrolo[3,2-b]pyridine-2-carboxamide] | 661 | < 4.6 |
| Cc1cc2[nH]c(C(=O)N(Cc3ccc(-c4c(F)cccc4F)cn3)C3CC(F)(F)C3)cc2nc1N [Example B3, 5-amino-N-(3,3-difluorocyclobutyl)-N-((5-(2,6-difluorophenyl)pyridin-2-yl)methyl)-6-methyl-1H-pyrrolo[3,2-b]pyridine-2-carboxamide] | > 10000 | 864 |
| Cc1cc2[nH]c(C(=O)N(Cc3ccc(-c4ccccn4)cn3)C3CCCc4cccnc43)cc2nc1N (centres unmarked) [Example A16, N-([2,3′-bipyridin]-6′-ylmethyl)-5-amino-6-methyl-N-(5,6,7,8-tetrahydroquinolin-8-yl)-1H-pyrrolo[3,2-b]pyridine-2-carboxamide] | 1640 | 17 |
| Cc1cc2[nH]c(C(=O)N(Cc3cc(Cl)c(-c4ccccc4)cn3)[C@@H]3CCCc4cccnc43)cc2nc1N [Example A8, (R)-5-amino-N-((4-chloro-5-phenylpyridin-2-yl)methyl)-6-methyl-N-(5,6,7,8-tetrahydroquinolin-8-yl)-1H-pyrrolo[3,2-b]pyridine-2-carboxamide] | 2040 | < 4.6 |
| CO[C@H]1C[C@@H](N(Cc2ccc(-c3ccccc3)cn2)C(=O)c2cc3nc(N)c(C)cc3[nH]2)C1 [Example B7, 5-amino-N-((1s,3s)-3-methoxycyclobutyl)-6-methyl-N-((5-phenylpyridin-2-yl)methyl)-1H-pyrrolo[3,2-b]pyridine-2-carboxamide] | > 10000 | 2050 |
| Cc1cc2[nH]c(C(=O)N(Cc3ccc(-c4c(C)cnn4C)cn3)[C@@H]3CCCc4cccnc43)cc2nc1N [Example A4, (R)-5-amino-N-((5-(1,4-dimethyl-1H-pyrazol-5-yl)pyridin-2-yl)methyl)-6-methyl-N-(5,6,7,8-tetrahydroquinolin-8-yl)-1H-pyrrolo[3,2-b]pyridine-2-carboxamide] | 2360 | 30 |
| Cc1cc2[nH]c(C(=O)N(Cc3ccc(-c4ccccc4)cn3)C3CCC3)cc2nc1N [Example B1, 5-amino-N-cyclobutyl-6-methyl-N-((5-phenylpyridin-2-yl)methyl)-1H-pyrrolo[3,2-b]pyridine-2-carboxamide] | > 10000 | 359 |
